# Assay results as given in patent publication US20060135773A1, “Trisubstituted nitrogen modulators of tyrosine phosphatases” (priority 2004, published 2006).
# Molecular target: T1, PTP-1B (Homo sapiens, UniProt P18031)
# T1 construct: PTP-1B (purified, 1 mg/mL) as a 1:250 dilution
# T1 sequence (P18031 1-321 limits assumed): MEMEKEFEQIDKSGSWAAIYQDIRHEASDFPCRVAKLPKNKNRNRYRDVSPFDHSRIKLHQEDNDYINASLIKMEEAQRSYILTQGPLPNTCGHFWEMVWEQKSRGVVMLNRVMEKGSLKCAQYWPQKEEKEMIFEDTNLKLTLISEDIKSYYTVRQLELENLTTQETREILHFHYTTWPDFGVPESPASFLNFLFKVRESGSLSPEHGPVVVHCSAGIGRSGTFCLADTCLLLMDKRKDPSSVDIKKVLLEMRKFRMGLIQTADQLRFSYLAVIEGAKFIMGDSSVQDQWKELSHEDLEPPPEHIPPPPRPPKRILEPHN
# Test: pNPP tyrosine phosphatase inhibition assay, PTP-1B
# Type: biochemical
# Details: pNPP assay, PTP-1B; read-out: Activity Class (IC50 ranges)
# In short: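 Test compounds were screened at two final levels, 31.3 and 10 µM, against 4 µg/mL purified PTP-1B. The substrate was 10 mM p-nitrophenyl phosphate, with incubation for 10 min at 30°C before a K2CO3 quench. Activity was taken from A405.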
row,Compound,IC50
1,"N#Cc1cccc(S(=O)(=O)N(Cc2ccc(C(F)(F)P(=O)(O)O)c(Cl)c2)Cc2ccccc2-c2ccccc2)c1 [Compound 216, [(4-{[Biphenyl-2-ylmethyl-(3-cyano-benzenesulfonyl)-amino]-methyl}-2-chloro-phenyl)-difluoro-methyl]-phosphonic acid]",250 to 499 nM
2,"COc1ccccc1S(=O)(=O)N(Cc1ccc(-c2ccc3c(c2)C(=O)OC3)cc1)Cc1ccc(C(F)(F)P(=O)(O)O)c(Cl)c1 [Compound 197, 6-{4-[({[4-(difluorophosphonomethyl)-3-chlorophenyl]methyl}[(2-methoxyphenyl)sulfonyl]amino)methyl]phenyl}-3-hydroisobenzofuran-1-one]",100 to 249 nM
3,"COc1ccccc1S(=O)(=O)N(Cc1ccc(OCC(=O)O)c(C(=O)O)c1)Cc1ccccc1-c1ccccc1 [Compound 224, 5-{[Biphenyl-2-ylmethyl-(2-methoxy-benzenesulfonyl)-amino]-methyl}-2-carboxymethoxy-benzoic acid]",> 25000 nM
4,"COC(=O)c1cccc(-c2ccc(CN(Cc3ccc(C(F)(F)P(=O)(O)O)c(Cl)c3)S(=O)(=O)c3ccccc3OC)cc2)c1 [Compound 145, 4′-{[[3-Chloro-4-(difluoro-phosphono-methyl)-benzyl]-(2-methoxy-benzenesulfonyl)-amino]-methyl}-biphenyl-3-carboxylic acid methyl ester]",250 to 499 nM
5,{[4-(difluorophosphonomethyl)-3-chlorophenyl]methyl}{[2-(3-ethylphenyl)phenyl]methyl}[(2-methoxyphenyl)sulfonyl]amine [Compound 196],100 to 249 nM
6,"O=P(O)(O)C(F)(F)c1ccc(CN(Cc2ccc(C(F)(F)P(=O)(O)O)cc2)c2ccccc2)cc1 [Compound 64, {[4-({[4-(Difluoro-phosphono-methyl)-benzyl]-phenyl-amino}-methyl)-phenyl]-difluoro-methyl}-phosphonic acid]",2500 to 25000 nM
7,"COc1ccccc1S(=O)(=O)N(Cc1ccc(-c2cccc(C#N)c2)cc1)Cc1ccc(C(F)(F)P(=O)(O)OC)c(Cl)c1 [Compound 165, [(2-Chloro-4-{[(3′-cyano-biphenyl-4-ylmethyl)-(2-methoxy-benzenesulfonyl)-amino]-methyl}-phenyl)-difluoro-methyl]-phosphonic acid monomethyl ester]",2500 to 25000 nM
8,"O=P(O)(O)C(F)(F)c1ccc(CN(Cc2ccc(C(F)(F)P(=O)(O)O)c(Br)c2)S(=O)(=O)c2ccc3ccccc3c2)cc1 [Compound 42, [(2-Bromo-4-{[[4-(difluoro-phosphono-methyl)-benzyl]-(naphthalene-2-sulfonyl)-amino]-methyl}-phenyl)-difluoro-methyl]-phosphonic acid]",< 99 nM
9,"COc1ccccc1S(=O)(=O)N(Cc1ccc(N(C)C(=O)C(=O)O)cc1)Cc1ccc(N(C)C(=O)C(=O)O)cc1 [Compound 141, N-[4-({(2-Methoxy-benzenesulfonyl)-[4-(methyl-oxalyl-amino)-benzyl]-amino}-methyl)-phenyl]-N-methyl-oxalamic acid]",> 25000 nM
10,"COc1ccccc1S(=O)(=O)N(Cc1ccc(-c2ccc(Cc3nn[nH]n3)cc2)cc1)Cc1ccc(C(F)(F)P(=O)(O)O)c(Cl)c1 [Compound 153, {[2-Chloro-4-({(2-methoxy-benzenesulfonyl)-[4′-(2H-tetrazol-5-ylmethyl)-biphenyl-4-ylmethyl]-amino}-methyl)-phenyl]-difluoro-methyl}-phosphonic acid]",100 to 249 nM
11,"NC(=O)c1ccccc1S(=O)(=O)N(Cc1ccccc1)Cc1ccc(C(F)(F)P(=O)(O)O)c(Cl)c1 [Compound 192, [(4-{[Benzyl-(2-carbamoyl-benzenesulfonyl)-amino]-methyl}-2-chloro-phenyl)-difluoromethyl]-phosphonic acid]",250 to 499 nM
12,"CS(=O)(=O)N(Cc1ccc(C(F)(F)P(=O)(O)O)cc1)Cc1ccc(C(F)(F)P(=O)(O)O)cc1 [Compound 131, {[4-({[4-(Difluoro-phosphono-methyl)-benzyl]-methanesulfonyl-amino}-methyl)-phenyl]-difluoro-methyl}-phosphonic acid]",2500 to 25000 nM
13,"O=P(O)(O)C(F)(F)c1ccc(CN(Cc2ccc(C(F)(F)P(=O)(O)O)cc2)c2ccc(-c3ccccc3)cc2)cc1 [Compound 62, {[4-({Biphenyl-4-yl-[4-(difluoro-phosphono-methyl)-benzyl]-amino}-methyl)-phenyl]-difluoro-methyl}-phosphonic acid]",2500 to 25000 nM
14,"COc1ccccc1S(=O)(=O)N(Cc1ccc(C(O)C(=O)O)cc1)Cc1ccc(S(C)(=O)=O)cc1 (stereo not drawn) [Compound 127, Hydroxy-(4-{[(4-methanesulfonyl-benzyl)-(2-methoxy-benzenesulfonyl)-amino]-methyl}-phenyl)-acetic acid]",> 25000 nM
15,"COc1ccccc1S(=O)(=O)N(Cc1ccc(-c2ccc(S(C)(=O)=O)cc2)c(C)c1)Cc1ccc(C(F)(F)P(=O)(O)O)c(Cl)c1 [Compound 151, [(2-Chloro-4-{[(4′-methanesulfonyl-2-methyl-biphenyl-4-ylmethyl)-(2-methoxy-benzenesulfonyl)-amino]-methyl}-phenyl)-difluoro-methyl]-phosphonic acid]",250 to 499 nM
16,"COc1ccccc1S(=O)(=O)N(Cc1ccc(-c2ccc(Cl)c(C(=O)NO)c2)cc1)Cc1ccc(C(F)(F)P(=O)(O)O)c(Cl)c1 [Compound 181, [(2-Chloro-4-{[(4′-chloro-3′-hydroxycarbamoyl-biphenyl-4-ylmethyl)-(2-methoxy-benzenesulfonyl)-amino]-methyl}-phenyl)-difluoro-methyl]-phosphonic acid]",< 99 nM
17,"COc1ccccc1S(=O)(=O)N(Cc1ccc(-c2ccc(-c3nn[nH]n3)cc2)cc1)Cc1ccc(C(F)(F)P(=O)(O)O)c(Cl)c1 [Compound 159, {[2-Chloro-4-({(2-methoxy-benzenesulfonyl)-[4′-(2H-tetrazol-5-yl)-biphenyl-4-ylmethyl]-amino}-methyl)-phenyl]-difluoro-methyl}-phosphonic acid]",< 99 nM
18,"O=P(O)(O)C(F)(F)c1ccc(CN(Cc2ccc(C(F)(F)P(=O)(O)O)cc2)S(=O)(=O)c2cccc(Cl)c2Cl)cc1 [Compound 91, {[4-({(2,3-Dichloro-benzenesulfonyl)-[4-(difluoro-phosphono-methyl)-benzyl]-amino}-methyl)-phenyl]-difluoro-methyl}-phosphonic acid]",2500 to 25000 nM
19,"O=C(O)c1ccc(CN(Cc2ccc(C(=O)O)c(Br)c2)S(=O)(=O)c2ccccc2)cc1 [Compound 79, 2-bromo-4-([Benzenesulfonyl-(4-carboxybenzyl)-amino]-methyl)-benzoic acid]",> 25000 nM
20,"COc1ccccc1S(=O)(=O)N(Cc1ccc(C(F)(F)P(=O)(O)O)c(Cl)c1)CC12CC3CC(CC(C3)C1)C2 [Compound 201, (Adamantanylmethyl){[4-(difluorophosphonomethyl)-3-chlorophenyl]methyl}[(2-methoxyphenyl)sulfonyl]amine]",250 to 499 nM
21,{[4-(difluorophosphonomethyl)-3-chlorophenyl]methyl}{[2-(4-methoxyphenyl)phenyl]methyl}[(2-methoxyphenyl)sulfonyl]amine [Compound 190],< 99 nM
22,"COc1ccccc1S(=O)(=O)N(Cc1cccc(-c2ccc(S(C)(=O)=O)cc2)c1)Cc1ccc(C(F)(F)P(=O)(O)O)c(Cl)c1 [Compound 143, [(2-Chloro-4-{[(4′-methanesulfonyl-biphenyl-3-ylmethyl)-(2-methoxy-benzenesulfonyl)-amino]-methyl}-phenyl)-difluoro-methyl]-phosphonic acid]",250 to 499 nM
23,"CS(=O)(=O)c1cccc(-c2ccc(S(=O)(=O)N(Cc3ccc(C#N)cc3)Cc3ccc(C(F)(F)P(=O)(O)O)c(Cl)c3)cc2)c1 [Compound 144, [(2-Chloro-4-{[(4-cyano-benzyl)-(3′-methanesulfonyl-biphenyl-4-sulfonyl)-amino]-methyl}-phenyl)-difluoro-methyl]-phosphonic acid]",250 to 499 nM
24,"COc1ccccc1S(=O)(=O)N(Cc1ccc(C(F)(F)P(=O)(O)O)c(Cl)c1)Cc1ccccc1-c1ccccc1 [Compound 168, [(4-{[Biphenyl-2-ylmethyl-(2-methoxy-benzenesulfonyl)-amino]-methyl}-2-chloro-phenyl)-difluoro-methyl]-phosphonic acid]",100 to 249 nM
25,"O=P(O)(O)C(F)(F)c1ccc(CN(Cc2ccc(C(F)(F)P(=O)(O)O)c(Cl)c2)C2CCc3ccccc32)cc1Cl (stereo not drawn) [Compound 232, {[2-Chloro-4-({[3-chloro-4-(difluoro-phosphono-methyl)-benzyl]-indan-1-yl-amino}-methyl)-phenyl]-difluoro-methyl}-phosphonic acid]",250 to 499 nM
26,"COc1ccccc1S(=O)(=O)N(Cc1ccc(N(CC(=O)O)C(=O)C(=O)O)cc1)Cc1ccc(S(C)(=O)=O)cc1 [Compound 136, N-Carboxymethyl-N-(4-{[(4-methanesulfonyl-benzyl)-(2-methoxy-benzenesulfonyl)-amino]-methyl}-phenyl)-oxalamic acid]",> 25000 nM
27,"O=P(O)(O)C(F)(F)c1ccc(CN(Cc2ccc(-c3cccc(-c4nn[nH]n4)c3)cc2)S(=O)(=O)c2ccc3ccccc3c2)cc1Cl [Compound 158, {[2-Chloro-4-({(naphthalene-2-sulfonyl)-[3′-(2H-tetrazol-5-yl)-biphenyl-4-ylmethyl]-amino}-methyl)-phenyl]-difluoro-methyl}-phosphonic acid]",< 99 nM
